Data published in patent US20240246968A1, “SMALL MOLECULE INHIBITORS OF KRAS G12C MUTANT” (Merck Sharp & Dohme LLC, priority 2021, published 2024).

Assays:
MIA PaCa-2 cells = test: Growth inhibition activity on KRAS-G12C mutant cell line (MIA PaCa-2), CellTiter-Glo 3D; type: cell-based, human; conditions: MIA PaCa-2, 3-day culture with compound
Outline: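 Luminescence readout (CellTiter-Glo 3D) after 3 days of compound treatment at 37 °C, 5% CO2, 0.2% final DMSO, gave % growth inhibition versus no-compound wells, from which IC50 (nM) was derived; cells had been plated in 10% FBS RPMI1640 one day before dosing.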

[1] = target: Gppcp-bound recombinant K-Ras4B G12C mutant protein (amino acids 1-169, C51S/C80L/C118S) (Homo sapiens, UniProt P01116, C118S/C51S/C80L/G12C); test: KRASG12C binding assay (LC-MS, compound binding rate); conditions: test compound final concentration 0.5 μM, 25° C., 1 hour
Outline: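 Covalent adduct formation measured by deconvoluted intact-mass LC-MS after 1 h at 25 °C with compound at 0.5 μM final and 50 nM Gppcp-loaded KRAS G12C (residues 1-169, C51S/C80L/C118S). Buffer: TBS, 0.1 mM TCEP, 0.25 mM MgCl2, 50 μM Gppcp. Binding % = one-molecule adduct/(unbound + all adducts), binned A ≥80, B 60–80, C 40–60, D 20–40, E <20.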

[2] = target: T1, interaction between recombinant K-Ras4B G12C mutant protein and cRAF RAS-binding domain (cRAF-RBD) (Homo sapiens, UniProt P01116, G12C); test: Inhibitory activity on interaction between KRAS G12C and cRAF (Alpha technology); type: biochemical; conditions: GMPPNP-bound KRAS G12C incubated with compound at 25° C. for 1 hour, then cRAF-RBD; Alpha signal
T1 construct: made in house; host or cells: E. coli
Outline: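 Alpha readout of cRAF-RBD (aa 50-132) binding to KRAS G12C (aa 1-169) after 1.5 h RT, following 1 h, 25° C compound preincubation with GMPPNP-bound protein (pH 7.5 Tris, 1 mM MgCl2, TCEP, Tween 20). IC50 fitted from titrations, with GDP-bound KRAS as 100% and DMSO as 0% inhibition.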

IC50 (MIA PaCa-2 cells) [nM]	IC50 [2] [nM]	IC50 (MIA PaCa-2 cells; Homo sapiens, MIA PaCa-2, 72 h) [nM]	Structure (SMILES)	binding rate [1]
46.5	8.71		C=Cc1cc(C(=O)c2cc(F)c(NC(=O)/C=C/CNC3(C)CC3)c(F)c2)n2cccc(-c3c(OC)cc4c(nc(C)n4C)c3F)c12 (single isomer, unassigned) [Example 111-1, (E)-N-(2,6-difluoro-4-(8-(4-fluoro-6-methoxy-1,2-dimethyl-1H-benzo[d]imidazol-5-yl)-1-vinylindolizine-3-carbonyl)phenyl)-44-((1-methylcyclopropyl)amino)but-2-enamide]	A (A binding rate of 80% or more is rated “A”)
191	17.4		C=Cc1cc(C(=O)c2cc(F)c(NC(=O)/C=C/CNC3(C)CC3)c(F)c2)n2cccc(-c3c(OC)cc4c(nc(C)n4C)c3F)c12 (single isomer, unassigned) [Example 111-2, (E)-N-(2,6-difluoro-4-(8-(4-fluoro-6-methoxy-1,2-dimethyl-1H-benzo[d]imidazol-5-yl)-1-vinylindolizine-3-carbonyl)phenyl)-44-((1-methylcyclopropyl)amino)but-2-enamide]	A (A binding rate of 80% or more is rated “A”)
532	362		COc1c(-c2cc(F)cn3c(C(=O)c4cc(F)c(NC(=O)/C=C/CNC5(C)CC5)c(F)c4)cnc23)c(C(F)(F)F)cc2c1nc(C)n2C (single isomer, unassigned) [Example 112-2, (E)-N-(2,6-difluoro-4-(6-fluoro-8-(4-methoxy-1,2-dimethyl-6-(trifluoromethyl)-1H-benzo[d]imidazol-5-yl)imidazo[1,2-a]pyridine-3-carbonyl)phenyl)-4-((1-methylcyclopropyl)amino)but-2-enamide]	A (A binding rate of 80% or more is rated “A”)
	58	91	COc1cc2c(cc1-c1cccn3c(C(=O)c4cc(F)c(NC(=O)/C=C/CN[C@H]5CC[C@H](OC)CC5)c(F)c4)ccc13)ncn2C [Example 1, (E)-N-(2,6-difluoro-4-(8-(6-methoxy-1-methyl-1H-benzo[d]imidazol-5-yl)indolizine-3-carbonyl)phenyl)-4-(((1r,4r)-4-methoxycyclohexyl)amino)but-2-enamide]	A (A binding rate of 80% or more is rated “A”)
	60	57	CO[C@H]1CC[C@H](NC/C=C/C(=O)Nc2c(F)cc(C(=O)c3ccc4c(-c5cc6nc(C)n(C)c6cc5C(F)(F)F)cccn34)cc2F)CC1 [Example 2, (E)-N-(4-(8-(1,2-dimethyl-6-(trifluoromethyl)-1H-benzo[d]imidazol-5-yl)indolizine-3-carbonyl)-2,6-difluorophenyl)-4-(((1r,4r)-4-methoxycyclohexyl)amino)but-2-enamide]	A (A binding rate of 80% or more is rated “A”)
	72	52	CCc1nc2cc(-c3cccn4c(C(=O)c5cc(F)c(NC(=O)/C=C/CN[C@H]6CC[C@H](OC)CC6)c(F)c5)ccc34)c(C(F)(F)F)cc2n1C [Example 3, (E)-N-(4-(8-(2-ethyl-1-methyl-6-(trifluoromethyl)-1H-benzo[d]imidazol-5-yl)indolizine-3-carbonyl)-2,6-difluorophenyl)-4-(((1r,4r)-4-methoxycyclohexyl)amino)but-2-enamide]	A (A binding rate of 80% or more is rated “A”)
	74	42	COc1cc2c(cc1-c1cccn3c(C(=O)c4cc(F)c(NC(=O)/C=C/CN[C@H]5CC[C@H](OC)CC5)c(F)c4)ccc13)nc(C)n2C [Example 4, (E)-N-(2,6-difluoro-4-(8-(6-methoxy-1,2-dimethyl-1H-benzo[d]imidazol-5-yl)indolizine-3-carbonyl)phenyl)-4-(((1r,4r)-4-methoxycyclohexyl)amino)but-2-enamide]	A (A binding rate of 80% or more is rated “A”)
	75	45	COc1cc2c(cc1-c1cccn3c(C(=O)c4cc(F)c(NC(=O)/C=C/CNC(C)(C)C)c(F)c4)ccc13)nc(C)n2C [Example 5, (E)-4-(tert-butylamino)-N-(2,6-difluoro-4-(8-(6-methoxy-1,2-dimethyl-1H-benzo[d]imidazol-5-yl)indolizine-3-carbonyl)phenyl)but-2-enamide]	A (A binding rate of 80% or more is rated “A”)
	70	94	CO[C@H]1CC[C@H](NC/C=C/C(=O)Nc2c(F)cc(C(=O)c3cnc4c(-c5cc6nc7n(c6cc5C(F)(F)F)CCC7)cccn34)cc2F)CC1 [Example 6, (E)-N-(2,6-difluoro-4-(8-(7-(trifluoromethyl)-2,3-dihydro-1H-benzo[d]pyrrolo[1,2-a]imidazol-6-yl)imidazo[1,2-a]pyridine-3-carbonyl)phenyl)-4-(((1r,4r)-4-methoxycyclohexyl)amino)but-2-enamide]	B (a binding rate of 60% or more and less than 80% is rated “B”)
	69	160	CC(C)(C)NC/C=C/C(=O)Nc1c(F)cc(C(=O)c2cnc3c(-c4cc5nc6n(c5cc4C(F)(F)F)CCC6)cccn23)cc1F [Example 7, (E)-4-(tert-butylamino)-N-(2,6-difluoro-4-(8-(7-(trifluoromethyl)-2,3-dihydro-1H-benzo[d]pyrrolo[1,2-a]imidazol-6-yl)imidazo[1,2-a]pyridine-3-carbonyl)phenyl)but-2-enamide]	B (a binding rate of 60% or more and less than 80% is rated “B”)
	89	130	COCC(C)(C)NC/C=C/C(=O)Nc1c(F)cc(C(=O)c2ccc3c(-c4cc5ncn(C)c5cc4C(F)(F)F)cccn23)cc1F [Example 8]	A (A binding rate of 80% or more is rated “A”)
	27	82	Cn1cnc2cc(-c3cccn4c(C(=O)c5cc(F)c(NC(=O)/C=C/CNC6CCOCC6)c(F)c5)ccc34)c(C(F)(F)F)cc21 [Example 9, (E)-N-(2,6-difluoro-4-(8-(1-methyl-6-(trifluoromethyl)-1H-benzo[d]imidazol-5-yl)indolizine-3-carbonyl)phenyl)-4-((tetrahydro-2H-pyran-4-yl)amino)but-2-enamide]	A (A binding rate of 80% or more is rated “A”)
	69	94	CCc1cc2c(ncn2C)c(Cl)c1-c1cccn2c(C(=O)c3cc(F)c(NC(=O)/C=C/CN[C@H]4CC[C@H](OC)CC4)c(F)c3)ccc12 [Example 10, (E)-N-(4-(8-(4-chloro-6-ethyl-1-methyl-1H-benzo[d]imidazol-5-yl)indolizine-3-carbonyl)-2,6-difluorophenyl)-4-(((1r,4r)-4-methoxycyclohexyl)amino)but-2-enamide]	A (A binding rate of 80% or more is rated “A”)
	21	68	Cn1cnc2cc(-c3cccn4c(C(=O)c5cc(F)c(NC(=O)/C=C/CNC6(C)CCOCC6)c(F)c5)ccc34)c(C(F)(F)F)cc21 [Example 11, (E)-N-(2,6-difluoro-4-(8-(1-methyl-6-(trifluoromethyl)-1H-benzo[d]imidazol-5-yl)indolizine-3-carbonyl)phenyl)-4-((4-methyltetrahydro-2H-pyran-4-yl)amino)but-2-enamide]	A (A binding rate of 80% or more is rated “A”)
	64	48	CCc1cc2c(nc(C)n2C)c(Cl)c1-c1cccn2c(C(=O)c3cc(F)c(NC(=O)/C=C/CNC(C)(C)C)c(F)c3)ccc12 [Example 16, (E)-4-(tert-butylamino)-N-(4-(8-(4-chloro-6-ethyl-1,2-dimethyl-1H-benzo[d]imidazol-5-yl)indolizine-3-carbonyl)-2,6-difluorophenyl)but-2-enamide]	A (A binding rate of 80% or more is rated “A”)
	48	32	CCc1cc2c(nc(C)n2C)c(Cl)c1-c1cccn2c(C(=O)c3cc(F)c(NC(=O)/C=C/CNC4CCOCC4)c(F)c3)ccc12 [Example 17, (E)-N-(4-(8(4-chloro-6-ethyl-1,2-dimethyl-1H-benzo[d]imidazol-5-yl)indolizine-3-carbonyl)-2,6-difluorophenyl)-4-((tetrahydro-2H-pyran-4-yl)amino)but-2-enamide]	A (A binding rate of 80% or more is rated “A”)
	97	180	COc1cc(N2CCCC2=O)cc(Cl)c1-c1cccn2c(C(=O)c3cc(F)c(NC(=O)/C=C/CNC(C)(C)C)c(F)c3)ccc12 [Example 21, (E)-4-(tert-butylamino)-N-(4-(8-(2-chloro-6-methoxy-4-(2-oxopyrrolidin-1-yl)phenyl)indolizine-3-carbonyl)-2,6-difluorophenyl)but-2-enamide]	A (A binding rate of 80% or more is rated “A”)
